Assay results reported in EPA's ToxValDB 9.5 (doi:10.2903/j.efsa.2018.5307).

Tests used:
Apis mellifera = conditions: acute, mortality
Cyprinus carpio = conditions: acute; duration: 96 hours; mortality
Daphnia magna = conditions: chronic/long-term; duration: 23 days; reproduction
Oryctolagus sp. = conditions: developmental; development
Pimephales promelas = conditions: chronic/long-term; development
Tagia sp. = conditions: chronic/long-term; reproduction
Typhlodromus pyri = experiment: LR50; higher = less toxic; conditions: acute; mortality

Compound: CCOP(=O)=O.CCOP(=O)=O.CCOP(=O)=O.[Al+3] [Fosetyl aluminum]
- LD50 (Apis mellifera; dermal): > 100 µg/piece
- LD50 (Apis mellifera; oral, unspecified): > 140 µg/piece
- LD50 (Colinus virginianus; acute, oral, mortality): > 2000 mg/kg-day
- NOEL (Colinus virginianus; reproduction developmental): 216 mg/kg-day
- LC50 (Cyprinus carpio): > 100 µg/mL
- NOEC (Daphnia magna): 10.1 mg/L
- NOAEL (Oryctolagus sp.): 100 mg/kg-day
- NOEC (Pimephales promelas): 0.213 mg/L
- LD50 (Rattus norvegicus; acute, oral, mortality): > 7080 mg/kg-day
- NOAEL (Rattus norvegicus; reproduction developmental, body weight): 482 mg/kg-day
- NOEC (Tagia sp.): 164 mg/kg
- LR50 (Typhlodromus pyri): > 8400 g/ha
